Assay results from patent US8058437B2, “(Pyrroloquinoxalinyl) pyrazinecarbohydrazide-oxalic acid co-crystal for treatment of cancer and other diseases” (Novelix Pharmaceuticals, Inc., priority 2008, dated 2011).

How the values were obtained:
[1] = test system: TC71luc Ewing tumor cell line; assay: Ewing's sarcoma cell viability by luminescence, TC71luc; assay type: cell-based, human; conditions: 72 hours
Protocol: (§1) Treatment of Ewing's sarcoma with NVX-412. The TC71luc and TC32luc Ewing tumor cell lines stably express the luciferase gene. Cells were seeded into 96-well plates 24 hours before treating with the active compound to allow attachment. Cells were treated with NVX-412 for 72 hours. Serial dilutions of NVX-412 were prepared in medium from a 10 μM stock solution in DMSO. […] After 72 hours, cell viability was measured by luminescence using a Saphire2 plate reader.

[2] = test system: TC32luc Ewing tumor cell line; assay: Ewing's sarcoma cell viability by luminescence, TC32luc; assay type: cell-based, human; conditions: 72 hours
Protocol: as §1

[3] = test system: human cancer cell lines (NCI60); assay: Treatment of human cancer cell lines with NVX-412 (NCI screening procedure, SRB staining); assay type: cell-based
Protocol: Treatment of various cancer cell lines with NVX-412. Over 60 human cancer cell lines were treated with NVX-412 according to procedures detailed by the National Cancer Institute Developmental Therapeutics Program (see dtp.nci.nih.gov/branches/btb/ivclsp.html) and Shoemaker R H (Nat. Rev. Cancer, 6, 813-823, (2006)) and references cited therein. Many of the cell lines tested are available from the American Type Culture Collection (Rockville, Md., USA). The melanoma cell line 518A2 has been described previously (Jansen et al., “Activated N-Ras Contributes to the Chemoresistance of Human Melanoma in Severe Combined Immunodeficiency (SCID) Mice by Blocking Apoptosis,” Cancer Research 57, 362-65 (1997)). A typical screening of cancer cell treatment by NVX-412 employed the following procedure.
The human tumor cell lines of the cancer screening panel were grown in RPMI 1640 medium containing 5% fetal bovine serum and 2 mM L-glutamine. For a typical screening experiment, cells were inoculated into 96 well microtiter plates in 100 μL at plating densities ranging from 5,000 to 40,000 cells/well depending on the doubling time of individual cell lines. After cell inoculation, the microtiter plates were incubated at 37° C. in 5% CO2/95% air at 100% relative humidity for 24 hours prior to the addition of NVX-412. […]
Following the addition of NVX-412, the plates were incubated for an additional 48 hours at 37° C. in 5% CO2/95% air at 100% relative humidity. […] Bound stain was subsequently solubilized with 10 mM trizma base, and the absorbance was read on an automated plate reader at a wavelength of 515 nm. […] Using the seven absorbance measurements [time zero (Tz), control growth (C), and test growth in the presence of NVX-412 at the five concentration levels (Ti)], the percentage growth was calculated at each of the NVX-412 concentration levels. Percentage growth inhibition was calculated as: [(Ti−Tz)/(C−Tz)]*100 for concentrations for which Ti≧Tz [(Ti−Tz)/Tz]*100 for concentrations for which Ti<Tz.
Three dose response parameters were calculated. […]

`O=C(NNc1nc2cc(F)ccc2n2cccc12)c1cnccn1.O=C(O)C(=O)O` [NVX-412, N′-(7-fluoropyrrolo[1,2a]quinoxalin-4-yl)pyrazine-2-carbohydrazide oxalic acid co-crystal] was tested, and the “fraction of cells remaining after three days, mean” value (from here on “fraction of cells remaining”) ([1]; TC71, NVX-412 5 nM) was 1.00, the “fraction of cells remaining” value ([1]; TC71, NVX-412 10 nM) was 0.97 and the “fraction of cells remaining” value ([1]; TC71, NVX-412 25 nM) was 0.95. For the same molecule, the “fraction of cells remaining” value ([1]; TC71, NVX-412 50 nM) was 0.92, the “fraction of cells remaining” value ([1]; TC71, NVX-412 75 nM) was 0.76 and the “fraction of cells remaining” value ([1]; TC71, NVX-412 100 nM) was 0.50. The “fraction of cells remaining” value ([1]; TC71, NVX-412 150 nM) was 0.21, the “fraction of cells remaining” value ([1]; TC71, NVX-412 200 nM) was 0.08 and the “fraction of cells remaining” value ([1]; TC71, NVX-412 375 nM) was 0.01. For the same molecule, the “fraction of cells remaining” value ([2]; TC32, NVX-412 5 nM) was 1.03, the “fraction of cells remaining” value ([2]; TC32, NVX-412 10 nM) was 0.96 and the “fraction of cells remaining” value ([2]; TC32, NVX-412 25 nM) was 0.95. The “fraction of cells remaining” value ([2]; TC32, NVX-412 50 nM) was 0.91, the “fraction of cells remaining” value ([2]; TC32, NVX-412 75 nM) was 0.69 and the “fraction of cells remaining” value ([2]; TC32, NVX-412 100 nM) was 0.44. For the same molecule, the “fraction of cells remaining” value ([2]; TC32, NVX-412 150 nM) was 0.15, the “fraction of cells remaining” value ([2]; TC32, NVX-412 200 nM) was 0.06 and the “fraction of cells remaining” value ([2]; TC32, NVX-412 375 nM) was 0.01. The GI50 ([3]; almost all cell lines tested, 48 hours incubation) was “nanomolar range”, the “inhibition of tumor cell growth” value ([3]; cancer cell lines tested, summary) was “pronounced inhibition of tumor cell growth” and the “effectiveness against cancer cell lines” value ([3]; sarcoma, melanoma, and CNS cancer cell lines, summary) was “very effective”.
